# Results from patent publication US20080227815A1, “Crystal of Indole Derivative Having Piperidine Ring and Process for Production Thereof” (priority 2005, published 2008).
# Where a name gives a salt, the structure may show the parent alone.
# Tests used:
# Rat 5-HT1A = target: T1, Rat 5-HT1A (Rattus norvegicus, UniProt P19327); assay: Affinity for rat serotonin1A receptor ([3H]MPPF binding to rat hippocampal membrane fraction); details: pH 7.4, 25° C., 60 min, non-specific binding with 10 μM serotonin, Ki from IC50, tracer concentration and Kd (Scatchard)
# T1 construct: A rat hippocampus sample was homogenized in a 50 mM Tris-HCl buffer; from tissue; host or cells: rat hippocampus (membrane fraction)
# T1 sequence (P19327 1-422): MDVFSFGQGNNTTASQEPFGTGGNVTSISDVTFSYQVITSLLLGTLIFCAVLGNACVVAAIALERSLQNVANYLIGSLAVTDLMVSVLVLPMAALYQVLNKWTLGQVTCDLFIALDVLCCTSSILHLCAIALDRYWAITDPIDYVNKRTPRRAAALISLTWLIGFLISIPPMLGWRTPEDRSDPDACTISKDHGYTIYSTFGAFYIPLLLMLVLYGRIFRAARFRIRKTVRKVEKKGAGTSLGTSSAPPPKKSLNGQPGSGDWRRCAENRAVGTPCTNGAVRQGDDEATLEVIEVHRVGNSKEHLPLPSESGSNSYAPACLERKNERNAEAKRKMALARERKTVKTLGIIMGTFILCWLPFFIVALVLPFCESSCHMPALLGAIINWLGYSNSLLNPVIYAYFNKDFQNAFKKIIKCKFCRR
# Method: Test Regarding Affinity for Rat Serotonin1A Receptor
# An MPPF rat hippocampal membrane fraction selectively binding to the 5-HT1A receptor was used to test affinity of a test substance for the rat 5-HT1A receptor.
# A rat hippocampus sample was homogenized in a 50 mM Tris-HCl buffer (pH 7.4; hereinafter referred to as “buffer A”) that had been cooled with ice. The suspension was centrifuged at 50,000×g for 20 minutes. The obtained sediment was suspended in buffer solution A, and the resultant solution was then centrifuged at 50,000×g for 20 minutes. The obtained sediment was suspended in buffer solution to obtain a rat hippocampus membrane fraction.
# The mixture used for incubation contained an appropriate amount of membrane fraction, a test substance at a desired concentration, [^3H]MPPF, dimethyl sulfoxide and buffer A. The reaction was initiated through the addition of the membrane fraction, and the mixture was incubated at 25° C. for 60 minutes. After incubation, the mixture was subjected to vacuum filtration by passing through a glass filter using a Cell Harvester. The filter was washed 3 times with buffer solution A, and then radioactivity binding to the receptor was measured with a liquid scintillation counter. Non-specific binding was defined as binding detected in the presence of 10 μM serotonin. […]
# urinary reflex = assay: Inhibitory action against the increased urinary reflex action due to destruction of the superior colliculus in rats (cystometrogram); type: in vivo, rat (Sprague-Dawley; details: 1 mg/kg, i.v.; superior colliculus-lesioned female Sprague-Dawley rats; maximal reaction (Emax)
# Excerpt: In the present test, Sprague-Dawley female rats (200-350 g) were used. The rats underwent a median incision of the abdomen under anesthesia. A hole with a minor diameter was made on the apex of the bladder, and a catheter used for measurement of an intravesical pressure was placed therein. A catheter used for administration of a test substance was placed in the femoral vein. These catheters were fixed at the occipital region of the rat through the subcutis. One day later, the urinary reflex of the rats was measured with a cystometrogram. Thereafter, the rats were fixed on a brain stereotaxis apparatus under anesthesia, and then subjected to a median incision of the scalp. […] Electric current was then applied (65° C., 4 minutes) so as to damage the brain tissue. After completion of the operation, when the rat awoke from the anesthesia, cystometrogram was conducted again to confirm the increased state of urinary reflex. A test substance was administered through the catheter placed in the femoral vein, and the action of the test substance on urinary reflex was evaluated. In addition, the effects of several test substances were compared using the maximal reaction (Emax).
smiles,measurement,setting,value
"CNC(=O)c1ccc2ccn(C3CCN(CCc4c(OC)ccc5c4OC(C)(C)CC5=O)CC3)c2c1 [Form D crystal form of fumarate, 1-{1-[2-(7-methoxy-2,2-dimethyl-4-oxochroman-8-yl)ethyl]piperidin-4-yl}-N-methyl-1H-indole-6-carboxamide fumarate (form D crystal)]",Ki,Rat 5-HT1A,0.045 nM
same,Urinary interval Emax,urinary reflex,75%
